Laboratory results as given in patent publication US20260041620A1, “NOVEL AMINO ACID BASED SALTS, COMPOSITIONS AND METHODS FOR TREATING SKIN AND IMPROVING SKIN REJUVENATION AND LONGEVITY” (Sytheon Ltd, priority 2023, published 2026).
Like-named read-outs stand apart in the source and are kept apart here.

Legend:
[1] = target: T1, HDAC 11 (Homo sapiens, UniProt Q96DB2); experiment: HDAC 11 fluorogenic assay kit; assay type: biochemical
T1 construct: purchased BPS Biosciences 50687
T1 sequence (Q96DB2 1-347): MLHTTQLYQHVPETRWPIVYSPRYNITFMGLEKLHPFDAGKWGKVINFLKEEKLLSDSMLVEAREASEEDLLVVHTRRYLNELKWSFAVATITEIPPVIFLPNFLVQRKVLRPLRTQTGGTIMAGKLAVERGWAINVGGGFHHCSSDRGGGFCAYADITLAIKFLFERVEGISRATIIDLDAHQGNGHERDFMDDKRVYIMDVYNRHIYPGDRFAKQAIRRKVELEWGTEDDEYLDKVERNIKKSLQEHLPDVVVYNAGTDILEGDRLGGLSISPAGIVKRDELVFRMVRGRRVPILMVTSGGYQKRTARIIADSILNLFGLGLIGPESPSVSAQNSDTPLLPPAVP
Description: (§1) Test materials were stored at room temperature and stock solutions were prepared at 20 mg/ml in DMSO. Further dilutions were made in sterile distilled water immediately before being added to the reaction mixture containing a substrate, and the reaction was triggered by the addition of purified HDAC enzymes, Double distilled water was the negative control and trichostatin (1.5 ug/ml) was used as a positive control for validation of each study. The test procedure was as directed in the assay kits. The products of the reactions were measured by fluorometry at ex/em 350/450 nm using multi-well plate fluorometer Cytofluor 4000 (Applied Biosystem, Foster City, CA) or using SpectraMax i3× Multi-Mode Detection Platform from Molecular Devices (Sunnyvale, CA).
(§2) Statistical significance was assessed with a two-tail Student test. Deviations of ≤20% as compared to water control with p values below 0.05 were considered statistically significant.

[2] = target: T2, MAGL (Homo sapiens, UniProt Q99685); experiment: MAGL inhibitory assay; assay type: biochemical
T2 construct: purchased Cayman 10007812
T2 sequence (Q99685 1-303): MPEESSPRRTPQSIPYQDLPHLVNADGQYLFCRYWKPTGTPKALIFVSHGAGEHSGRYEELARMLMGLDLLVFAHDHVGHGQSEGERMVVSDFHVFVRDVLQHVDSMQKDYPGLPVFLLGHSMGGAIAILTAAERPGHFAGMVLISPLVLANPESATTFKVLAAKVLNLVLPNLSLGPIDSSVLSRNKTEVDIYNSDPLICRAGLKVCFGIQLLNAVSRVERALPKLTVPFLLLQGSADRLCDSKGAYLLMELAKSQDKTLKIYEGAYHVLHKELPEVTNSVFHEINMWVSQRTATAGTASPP
Description: Each study was performed in duplicate and the results averaged.
The final concentration in each well was 10 μl of sample, 5.6 μM MAGL (Cayman Catalog #10007812) and 23.6 μM 2-Arachidonoyl Glycerol (Cayman catalog #62160).

[3] = target: HDAC2 (Homo sapiens, UniProt Q92769)
Sequence of HDAC2 (Q92769 whole entry): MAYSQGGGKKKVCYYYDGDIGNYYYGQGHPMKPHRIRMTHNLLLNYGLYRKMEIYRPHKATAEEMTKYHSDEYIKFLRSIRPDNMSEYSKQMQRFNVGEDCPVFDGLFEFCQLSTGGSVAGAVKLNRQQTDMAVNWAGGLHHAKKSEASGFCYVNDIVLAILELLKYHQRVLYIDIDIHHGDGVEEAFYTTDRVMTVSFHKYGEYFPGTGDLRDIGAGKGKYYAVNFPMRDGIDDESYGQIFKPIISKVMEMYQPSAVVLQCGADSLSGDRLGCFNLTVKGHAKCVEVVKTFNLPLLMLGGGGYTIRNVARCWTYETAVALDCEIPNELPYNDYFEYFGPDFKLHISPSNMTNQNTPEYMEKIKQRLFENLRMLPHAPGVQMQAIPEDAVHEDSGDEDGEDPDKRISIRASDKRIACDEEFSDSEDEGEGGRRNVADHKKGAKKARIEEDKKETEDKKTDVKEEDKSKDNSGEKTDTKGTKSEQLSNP
Description: as §1, §2

[4] = target: HDAC 3 (Homo sapiens, UniProt O15379)
Sequence of HDAC 3 (O15379 whole entry): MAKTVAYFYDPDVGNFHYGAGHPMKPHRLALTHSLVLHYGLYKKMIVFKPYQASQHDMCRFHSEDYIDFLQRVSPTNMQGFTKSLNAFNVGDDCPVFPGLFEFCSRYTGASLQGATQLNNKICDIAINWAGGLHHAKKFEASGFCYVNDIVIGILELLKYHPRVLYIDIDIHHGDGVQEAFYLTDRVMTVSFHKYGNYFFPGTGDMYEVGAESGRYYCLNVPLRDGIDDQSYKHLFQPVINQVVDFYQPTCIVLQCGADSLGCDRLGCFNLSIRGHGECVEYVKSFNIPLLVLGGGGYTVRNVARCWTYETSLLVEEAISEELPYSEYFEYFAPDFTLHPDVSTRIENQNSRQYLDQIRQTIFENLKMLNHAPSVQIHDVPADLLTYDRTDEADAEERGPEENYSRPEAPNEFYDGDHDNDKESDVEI
Sequence of HDAC 3 (Q9Y618 395-489 partner limits assumed): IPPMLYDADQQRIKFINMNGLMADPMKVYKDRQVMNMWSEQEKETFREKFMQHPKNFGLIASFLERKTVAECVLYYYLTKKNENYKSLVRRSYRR

[5] = target: HDAC 5 (Homo sapiens, UniProt Q9UQL6)
Sequence of HDAC 5 (Q9UQL6 whole entry): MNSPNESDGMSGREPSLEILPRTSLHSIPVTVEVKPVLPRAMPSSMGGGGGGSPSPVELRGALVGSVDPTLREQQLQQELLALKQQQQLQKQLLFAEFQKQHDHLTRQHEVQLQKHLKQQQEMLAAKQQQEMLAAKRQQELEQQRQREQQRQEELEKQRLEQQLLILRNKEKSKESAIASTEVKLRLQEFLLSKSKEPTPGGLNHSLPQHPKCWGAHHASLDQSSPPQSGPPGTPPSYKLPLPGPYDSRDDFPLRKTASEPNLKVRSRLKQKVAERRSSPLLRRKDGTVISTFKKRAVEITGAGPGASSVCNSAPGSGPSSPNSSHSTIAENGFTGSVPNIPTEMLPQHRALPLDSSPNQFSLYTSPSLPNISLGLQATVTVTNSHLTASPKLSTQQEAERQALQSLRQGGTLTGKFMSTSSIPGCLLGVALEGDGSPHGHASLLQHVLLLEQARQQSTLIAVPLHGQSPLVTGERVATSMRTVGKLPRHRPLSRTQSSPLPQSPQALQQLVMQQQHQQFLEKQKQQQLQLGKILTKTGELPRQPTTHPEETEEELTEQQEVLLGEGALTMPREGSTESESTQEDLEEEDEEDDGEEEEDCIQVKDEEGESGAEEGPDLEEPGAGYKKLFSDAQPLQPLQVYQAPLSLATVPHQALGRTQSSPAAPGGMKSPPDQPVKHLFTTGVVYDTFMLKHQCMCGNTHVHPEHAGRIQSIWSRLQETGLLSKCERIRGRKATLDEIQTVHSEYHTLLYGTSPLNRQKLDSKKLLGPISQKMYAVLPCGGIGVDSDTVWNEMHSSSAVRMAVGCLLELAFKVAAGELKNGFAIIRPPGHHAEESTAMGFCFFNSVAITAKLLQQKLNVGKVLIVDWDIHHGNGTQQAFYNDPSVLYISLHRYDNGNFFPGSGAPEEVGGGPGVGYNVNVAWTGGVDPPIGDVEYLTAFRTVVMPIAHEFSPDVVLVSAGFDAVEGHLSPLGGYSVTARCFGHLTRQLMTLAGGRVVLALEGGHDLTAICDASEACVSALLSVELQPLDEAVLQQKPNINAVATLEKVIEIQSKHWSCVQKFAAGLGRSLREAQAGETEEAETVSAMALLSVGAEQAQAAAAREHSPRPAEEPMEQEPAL
Description: as §1, §2

[6] = target: T3, HDAC6 (Homo sapiens, UniProt Q9UBN7)
T3 sequence (Q9UBN7 1-1215): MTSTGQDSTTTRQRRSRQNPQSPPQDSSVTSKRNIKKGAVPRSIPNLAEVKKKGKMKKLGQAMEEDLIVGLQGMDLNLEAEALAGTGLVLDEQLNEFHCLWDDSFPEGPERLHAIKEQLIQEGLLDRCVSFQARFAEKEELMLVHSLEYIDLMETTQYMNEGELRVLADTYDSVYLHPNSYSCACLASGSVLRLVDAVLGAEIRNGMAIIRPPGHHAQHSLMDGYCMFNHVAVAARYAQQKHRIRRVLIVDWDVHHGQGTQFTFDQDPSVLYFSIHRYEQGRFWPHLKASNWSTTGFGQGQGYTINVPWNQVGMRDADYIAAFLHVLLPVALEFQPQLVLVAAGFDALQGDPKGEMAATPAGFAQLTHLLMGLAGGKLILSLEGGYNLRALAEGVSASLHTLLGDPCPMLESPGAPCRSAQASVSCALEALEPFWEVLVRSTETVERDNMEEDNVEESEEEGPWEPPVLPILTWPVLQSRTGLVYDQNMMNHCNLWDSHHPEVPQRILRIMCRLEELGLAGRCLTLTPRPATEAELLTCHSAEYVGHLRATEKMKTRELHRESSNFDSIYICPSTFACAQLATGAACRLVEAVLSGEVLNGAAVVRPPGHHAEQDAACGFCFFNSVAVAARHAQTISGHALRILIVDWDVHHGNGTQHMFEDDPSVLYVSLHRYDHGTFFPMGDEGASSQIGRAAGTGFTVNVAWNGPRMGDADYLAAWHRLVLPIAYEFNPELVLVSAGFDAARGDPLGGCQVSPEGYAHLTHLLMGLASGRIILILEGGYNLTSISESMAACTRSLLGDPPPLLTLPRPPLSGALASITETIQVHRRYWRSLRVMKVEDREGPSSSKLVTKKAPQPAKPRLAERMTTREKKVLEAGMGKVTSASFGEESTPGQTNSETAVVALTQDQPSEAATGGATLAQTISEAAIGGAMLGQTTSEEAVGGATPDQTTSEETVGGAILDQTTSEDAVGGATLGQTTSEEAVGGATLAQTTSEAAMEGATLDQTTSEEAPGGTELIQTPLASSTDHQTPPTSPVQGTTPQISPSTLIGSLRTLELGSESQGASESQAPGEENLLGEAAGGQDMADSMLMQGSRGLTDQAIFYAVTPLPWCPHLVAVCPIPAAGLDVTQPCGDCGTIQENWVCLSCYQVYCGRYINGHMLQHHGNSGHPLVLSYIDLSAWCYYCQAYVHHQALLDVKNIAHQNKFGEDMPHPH
Description: as §1, §2

[7] = target: HDAC 9 (Homo sapiens, UniProt Q9UKV0)
Sequence of HDAC 9 (Q9UKV0 whole entry): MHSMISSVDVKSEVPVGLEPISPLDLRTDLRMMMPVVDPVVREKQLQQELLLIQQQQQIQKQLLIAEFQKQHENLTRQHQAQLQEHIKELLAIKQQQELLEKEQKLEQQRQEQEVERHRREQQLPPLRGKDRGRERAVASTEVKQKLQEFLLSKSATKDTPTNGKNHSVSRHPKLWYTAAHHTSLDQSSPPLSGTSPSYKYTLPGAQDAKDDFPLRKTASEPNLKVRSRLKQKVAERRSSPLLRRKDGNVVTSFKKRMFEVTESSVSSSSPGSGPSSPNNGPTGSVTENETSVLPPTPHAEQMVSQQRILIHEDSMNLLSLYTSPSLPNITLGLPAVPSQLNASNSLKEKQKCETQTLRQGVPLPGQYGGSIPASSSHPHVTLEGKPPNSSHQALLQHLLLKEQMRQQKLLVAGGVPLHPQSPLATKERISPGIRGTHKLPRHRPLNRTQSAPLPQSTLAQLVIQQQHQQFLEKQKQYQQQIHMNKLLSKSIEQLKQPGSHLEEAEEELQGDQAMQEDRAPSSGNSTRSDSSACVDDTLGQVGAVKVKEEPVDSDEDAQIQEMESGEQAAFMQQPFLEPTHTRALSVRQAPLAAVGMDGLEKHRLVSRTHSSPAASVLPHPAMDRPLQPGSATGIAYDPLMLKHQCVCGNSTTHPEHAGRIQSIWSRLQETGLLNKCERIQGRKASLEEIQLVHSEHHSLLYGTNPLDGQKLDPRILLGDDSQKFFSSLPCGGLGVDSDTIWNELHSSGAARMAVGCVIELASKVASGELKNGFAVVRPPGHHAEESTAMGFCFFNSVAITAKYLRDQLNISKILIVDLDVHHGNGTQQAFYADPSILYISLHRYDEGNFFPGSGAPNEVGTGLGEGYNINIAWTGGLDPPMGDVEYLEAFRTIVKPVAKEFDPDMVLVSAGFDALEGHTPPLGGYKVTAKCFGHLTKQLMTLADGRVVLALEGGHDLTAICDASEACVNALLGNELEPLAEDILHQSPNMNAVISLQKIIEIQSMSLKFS
Description: as §1, §2

[8] = target: HDAC1 (Homo sapiens, UniProt Q13547); experiment: HDAC 1 fluorogenic assay kit
Sequence of HDAC1 (Q13547 whole entry): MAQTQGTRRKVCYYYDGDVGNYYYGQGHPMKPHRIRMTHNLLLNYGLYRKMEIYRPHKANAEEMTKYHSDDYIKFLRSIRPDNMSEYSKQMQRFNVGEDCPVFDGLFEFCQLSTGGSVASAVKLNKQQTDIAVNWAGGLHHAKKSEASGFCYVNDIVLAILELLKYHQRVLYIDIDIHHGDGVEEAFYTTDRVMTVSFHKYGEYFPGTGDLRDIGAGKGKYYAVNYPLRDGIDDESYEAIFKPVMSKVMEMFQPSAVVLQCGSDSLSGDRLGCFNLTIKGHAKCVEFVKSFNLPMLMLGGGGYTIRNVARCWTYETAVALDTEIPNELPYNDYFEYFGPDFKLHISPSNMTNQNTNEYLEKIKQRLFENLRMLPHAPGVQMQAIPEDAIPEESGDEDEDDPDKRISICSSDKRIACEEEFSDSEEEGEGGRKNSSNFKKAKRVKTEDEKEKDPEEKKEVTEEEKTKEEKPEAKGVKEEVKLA

[9] = target: HDAC 4 (Homo sapiens, UniProt P56524); experiment: HDAC 4 fluorogenic assay kit
Sequence of HDAC 4 (P56524 whole entry): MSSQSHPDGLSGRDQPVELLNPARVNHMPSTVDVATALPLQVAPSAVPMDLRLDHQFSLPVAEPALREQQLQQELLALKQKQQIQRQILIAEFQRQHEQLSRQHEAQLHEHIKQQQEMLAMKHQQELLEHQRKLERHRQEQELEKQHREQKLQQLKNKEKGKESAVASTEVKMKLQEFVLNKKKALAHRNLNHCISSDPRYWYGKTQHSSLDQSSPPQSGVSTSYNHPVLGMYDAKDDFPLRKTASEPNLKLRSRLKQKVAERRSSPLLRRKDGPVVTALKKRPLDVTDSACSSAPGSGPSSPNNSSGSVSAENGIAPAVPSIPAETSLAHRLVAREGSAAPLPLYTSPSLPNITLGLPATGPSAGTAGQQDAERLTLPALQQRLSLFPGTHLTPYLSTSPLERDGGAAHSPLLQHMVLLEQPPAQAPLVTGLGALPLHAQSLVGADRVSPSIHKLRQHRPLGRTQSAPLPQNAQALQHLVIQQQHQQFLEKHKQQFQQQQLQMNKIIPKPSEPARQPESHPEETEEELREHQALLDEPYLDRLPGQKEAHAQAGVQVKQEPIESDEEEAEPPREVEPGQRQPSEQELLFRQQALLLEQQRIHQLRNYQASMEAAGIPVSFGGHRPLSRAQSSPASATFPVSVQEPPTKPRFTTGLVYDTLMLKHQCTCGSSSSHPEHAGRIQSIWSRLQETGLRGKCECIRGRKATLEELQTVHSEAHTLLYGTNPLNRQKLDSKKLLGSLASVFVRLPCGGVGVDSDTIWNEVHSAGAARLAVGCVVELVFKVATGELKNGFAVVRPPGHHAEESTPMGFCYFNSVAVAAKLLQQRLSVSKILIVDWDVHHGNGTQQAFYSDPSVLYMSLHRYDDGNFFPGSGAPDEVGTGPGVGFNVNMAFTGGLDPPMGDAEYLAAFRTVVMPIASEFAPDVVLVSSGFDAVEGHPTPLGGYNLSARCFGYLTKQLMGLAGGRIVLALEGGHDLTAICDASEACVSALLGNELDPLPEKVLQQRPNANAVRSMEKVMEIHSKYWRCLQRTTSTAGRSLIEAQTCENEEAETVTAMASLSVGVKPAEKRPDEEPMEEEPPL
Description: as §1, §2

SMILES | HDAC 11 activity, % of water-treated controls ([1]; 25 ug/ml) [%] | HDAC 11 activity, % of water-treated controls ([1]; 50 ug/ml) [%] | HDAC 11 activity, % of water-treated controls ([1]; 100 ug/ml) [%] | HDAC 11 activity, % of water-treated controls ([1]; 200 ug/ml) [%] | MAGL IC50 [2] [µg/mL] | HDAC 2 activity, % of water-treated controls ([3]; 25 ug/ml) [%] | HDAC 2 activity, % of water-treated controls ([3]; 50 ug/ml) [%] | HDAC 2 activity, % of water-treated controls ([3]; 100 ug/ml) [%] | HDAC 2 activity, % of water-treated controls ([3]; 200 ug/ml) [%] | HDAC 3 activity, % of water-treated controls ([4]; 25 ug/ml) [%] | HDAC 3 activity, % of water-treated controls ([4]; 50 ug/ml) [%] | HDAC 3 activity, % of water-treated controls ([4]; 200 ug/ml) [%] | HDAC 5 activity, % of water-treated controls ([5]; 25 ug/ml) [%] | HDAC 5 activity, % of water-treated controls ([5]; 50 ug/ml) [%] | HDAC 5 activity, % of water-treated controls ([5]; 100 ug/ml) [%] | HDAC 5 activity, % of water-treated controls ([5]; 200 ug/ml) [%] | HDAC 6 activity, % of water-treated controls ([6]; 5 ug/ml) [%] | HDAC 6 activity, % of water-treated controls ([6]; 25 ug/ml) [%] | HDAC 6 activity, % of water-treated controls ([6]; 50 ug/ml) [%] | HDAC 6 activity, % of water-treated controls ([6]; 100 ug/ml) [%] | further results
CCCC(=O)NCCCC[C@H](NC(=O)CCC)C(=O)[O-].CCCC(=O)NCCCC[C@H](NC(=O)CCC)C(=O)[O-].[Zn+2] [Zn di-(di-n-butyryl lysinate), Zinc di-(di-n-butyryl lysinate)] | 63 | 17 | 22 | 43 | 88.8 | 20 | 20 | 17 | 15 | 14 | 5 | 4 | 89 | 65 | 33 | 17 | 25 | 18 | 19 | 21 | HDAC 11 activity, % of water-treated controls ([1]; 5 ug/ml): 102%; HDAC 6 activity, % of water-treated controls ([6]; 200 ug/ml): 19%; HDAC 9 activity, % of water-treated controls ([7]; 5 ug/ml): 39%; HDAC 9 activity, % of water-treated controls ([7]; 25 ug/ml): 29%; HDAC 9 activity, % of water-treated controls ([7]; 50 ug/ml): 25%; HDAC 9 activity, % of water-treated controls ([7]; 100 ug/ml): 19%; HDAC 9 activity, % of water-treated controls ([7]; 200 ug/ml): 20%; HDAC 1 activity, % of water-treated controls ([8]; 5 ug/ml): 30%; HDAC 1 activity, % of water-treated controls ([8]; 25 ug/ml): 32%; HDAC 1 activity, % of water-treated controls ([8]; 50 ug/ml): 38%; HDAC 1 activity, % of water-treated controls ([8]; 100 ug/ml): 49%; HDAC 1 activity, % of water-treated controls ([8]; 200 ug/ml): 45%; HDAC 4 activity, % of water-treated controls ([9]; 25 ug/ml): 120%; HDAC 4 activity, % of water-treated controls ([9]; 50 ug/ml): 60%; HDAC 4 activity, % of water-treated controls ([9]; 100 ug/ml): 39%
CCCC(=O)NCCCCC(NC(=O)CCC)C(=O)[O-].CCCC(=O)NCCCCC(NC(=O)CCC)C(=O)[O-].[Ca+2] (stereo not drawn) [Ca di-(di-n-butyryl lysinate), calcium di-(di-n-butyryl lysinate)] | 106 | 100 | 101 | 97 | 37.6 | 96 | 90 | 97 | 94 | 116 | 120 | 119 | 128 | 123 | 117 | 88 | 105 | 97 | 124 | 128 | HDAC 3 activity, % of water-treated controls ([4]; 100 ug/ml): 121%; HDAC 5 activity, % of water-treated controls ([5]; 5 ug/ml): 144%; HDAC 6 activity, % of water-treated controls ([6]; 200 ug/ml): 134%; HDAC 9 activity, % of water-treated controls ([7]; 5 ug/ml): 212%; HDAC 9 activity, % of water-treated controls ([7]; 25 ug/ml): 178%; HDAC 9 activity, % of water-treated controls ([7]; 50 ug/ml): 242%; HDAC 9 activity, % of water-treated controls ([7]; 100 ug/ml): 289%; HDAC 9 activity, % of water-treated controls ([7]; 200 ug/ml): 258%; HDAC 1 activity, % of water-treated controls ([8]; 25 ug/ml): 80%; HDAC 1 activity, % of water-treated controls ([8]; 50 ug/ml): 89%; HDAC 1 activity, % of water-treated controls ([8]; 100 ug/ml): 135%
